The text below walks through data of patent publication US20240254119A1 (THIRD HARMONIC BIO, INC., priority 2022, published 2024).

The structures appear in SMILES notation.

Data set [1] in a line: Three time point assay for plasma, brain and testes distribution after oral dosing. The format is in vivo, rat. Conditions: rat, oral dosing. As to the method: Exemplary compounds were tested for distribution in plasma, brain and testes tissue following oral dosing of the compounds in rats. Procedures and results are described below.
Male SD Rats were group-housed (up to four animals/sex/cage) in polysulfone cages with certified aspen wood bedding during acclimation and study period.
Certified rodent diet and water was provided to all animals ad libitum, unless fasting for study procedures.
Appropriate amount of test article was accurately weighed and mixed with an appropriate volume of vehicle to get a clear solution or a uniform suspension; vortexing or sonication in water bath may also be need. Animals were dosed within four hours after the formulation is prepared.
For PO dosing, the dose formulation was administered via oral gavage following facility SOPs. The dose volume was determined by the animals' body weight collected on the morning of dosing day. The dose was 10 mg/kg.
Each blood collection (about 1 mL per time point at one or more of 0.5 h, 2 h, 3 h, 5.3 h, and 7 h) was performed from jugular vein or other suitable site of each animal into pre-chilled commercial EDTA-K2 tubes and placed on wet ice until centrifugation.
Blood samples were processed for plasma by centrifugation at approximately 4° C., 3,200 g for 10 min. Plasma was collected respectively and transferred into pre-labeled 96 well plate or polypropylene tubes, quick frozen over dry ice and kept at −60° C. or lower until LC-MS/MS analysis.
Rat brain was perfused with PBS to remove blood before harvest.
After perfusion, brain and testis were homogenized using homogenizing buffer (15 mM PBS (pH7.4):MeOH=2:1) at the ratio of 1:9 (1 g tissue with 9 mL buffer, the dilution ratio is 10). The brain homogenate was kept at −60° C. or lower until LC-MS/MS analysis. General sample processing procedure (brain homogenate & testis homogenate) using 96-well plate: • 1). An aliquot of 40 μL unknown sample, calibration standard, quality control and dilution quality control (if have), single blank, and double blank sample was added to the 96-well plate respectively; • 2). Each sample (except the double blank) was quenched with 400 μL of IS1 respectively (double blank sample was quenched with 400 μL of I), and then the mixture was vortex-mixed for 10 min at 800 rpm and centrifuged for 15 min at 3220×g, 4° C.; • 3). An aliquot of 50 μL supernatant was transferred to another clean 96-well plate and centrifuged for 5 min at 3220×g, 4° C., then the supernatant was directly injected for LC-MS/MS analysis.
• 1. A LC-MS/MS method for the quantitative determination of test compound in biological matrix was developed under Non-GLP compliance. • 2. A calibration curve with at least 6 non-zero calibration standards was applied for the method including LLOQ. • 3. A set of QCs consisting of low, middle, and high concentrations were applied for the method. • 4. N in 1 cassette LC-MS/MS method was developed for samples coming from different studies and the interference among all cassette analytes was evaluated during the method development. • 5. Cassette administration assay was performed if the mass difference (Δmass) among different analytes was more than 4 Da. In this case, interference evaluation was not necessary.
• 1. If sample number within a batch was ≤12, at least one set of standard curve separated with two parts through begin and end of the sequence, was included in the run, and QCs were not required. The recommended injection order was C8, C6, C4, C2, study samples, C7, C5, C3, C1. • 2. If sample number within a batch was >12, one standard curve and two sets of QCs with low, middle and high concentrations were applied for bioanalysis. Meanwhile, QCs number should be more than 5% of study sample number. • 3. Samples with the same types of matrix in different studies were quantified in one analysis run by using the developed N in 1 cassette LC-MS/MS method. • 4. […]

Another data set has as its system CYP3A4. As to the kind of experiment: Hepatocyte CYP induction assay, CYP3A4 gene expression. The format is in vitro ADME. Conditions: human hepatocytes. As to the method:
Exemplary compounds were tested for ability to induce CYP3A4 and/or CYP1A2 in hepatocytes. Procedures and results are described below.
Cryopreserved human hepatocytes were purchased from BioIVT (Baltimore, MD, USA), and they were stored in liquid nitrogen before using. The detailed information of hepatocytes is as follows:
Fresh dosing solutions of test compounds, and Rifampicin were prepared in the incubation medium on the day of dosing.
Cryopreserved hepatocytes were thawed and counted to determine yield, viability was measured. Hepatocytes at the concentrations of 0.7 million/mL were transferred to collagen-coated 96-well plates for attachment (0.1 mL viable cells/well). After allowing 4 to 5 hours for attachment of cells, the plating medium was replaced with Incubation Medium containing 2% (v/v) Matrigel™ (sandwich medium) and the hepatocytes were incubated until use.
All incubations were conducted at 37° C., 5% CO2, and saturated humidity.
The sandwich medium was removed and the hepatocytes were treated with incubation solutions containing test articles in vehicle (0.1% DMSO), or positive control for 24 hours after the cultures were established. The incubation solution was aspirated and replaced with incubation solution containing the same concentrations of test articles, vehicle, or positive controls for an additional 24 hours. The total treatment period was 48 hours. Triplicate were used for each concentration of test compound and positive control.
After treatment period of 48 hours, the incubation solution was aspirated. Hepatocytes were washed once with pre-warmed HBSS and incubated with 140 μL of RLT (lysis buffer from Rneasy 96 Kit) supplemented with 1% β-mercaptoethanol. Plates were then stored at ≤−60° C. freezer until RNA analysis.
Before RNA extraction, the frozen plate was thawed and cell lysates were transferred to 96-well plates. RNA isolation was performed using QIAcube HT System. RNA concentration was measured with NanoDrop ND-2000 spectrophotometer. The purity of RNA preparation was calculated by the ratio of the OD260 nm/OD280 nm and the acceptable range is between 1.8 and 2.2. Reverse transcription was performed to obtain cDNA. Quantification of the selective genes by real time quantitative Polymerase Chain Reaction (qPCR) was performed with TaqMan universal PCR Master Mix on the BIO-RAD CFX 384 Touch Real Time PCR System. The following setting were used: 50° C. for 2 minutes, 95° C. for 10 minutes, 40 cycles of 95° C. for 15 seconds and 60° C. for 1 minute. 18S rRNA was used as the internal standard.
To account for variation in RNA yields and reverse transcription polymerase chain reaction (RT-PCR), the gene of interest in all samples was normalized to an internal control gene (18S ribosomal RNA) (Cttarget gene−Ct18S=ΔCt).
The relative quantitation or change in mRNA level of selected genes induced by each test compound was expressed in relation to the vehicle control sample (Δctcompound−ΔCtvehicle=ΔΔCt). Fold changes in gene expression were determined by taking 2 to the power of this value (2^−ΔΔt).
% of positive control [(fold change in treated sample)−1]/[(fold change in positive control)−1]×100

The next data set can be described thus: Kinetic solubility assay. In kind it is physicochemical. The note with it: kinetic solubility, 50 mM PB (pH 7.4), shaken 24 hours at RT. The method, boiled down:
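Concentration in the filtrate was determined by UPLC-UV or HPLC-UV with a standard curve. Before that, compound (10 mM DMSO stock) in 50 mM PB at pH 7.4 was agitated 24 h at room temperature, then PTFE-filtered with centrifugation.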

In data set [2] the target is T1, wtKIT (Homo sapiens, UniProt P10721).
T1 construct: 1888289AM in the reaction mixtures
T1 sequence (P10721 26-976): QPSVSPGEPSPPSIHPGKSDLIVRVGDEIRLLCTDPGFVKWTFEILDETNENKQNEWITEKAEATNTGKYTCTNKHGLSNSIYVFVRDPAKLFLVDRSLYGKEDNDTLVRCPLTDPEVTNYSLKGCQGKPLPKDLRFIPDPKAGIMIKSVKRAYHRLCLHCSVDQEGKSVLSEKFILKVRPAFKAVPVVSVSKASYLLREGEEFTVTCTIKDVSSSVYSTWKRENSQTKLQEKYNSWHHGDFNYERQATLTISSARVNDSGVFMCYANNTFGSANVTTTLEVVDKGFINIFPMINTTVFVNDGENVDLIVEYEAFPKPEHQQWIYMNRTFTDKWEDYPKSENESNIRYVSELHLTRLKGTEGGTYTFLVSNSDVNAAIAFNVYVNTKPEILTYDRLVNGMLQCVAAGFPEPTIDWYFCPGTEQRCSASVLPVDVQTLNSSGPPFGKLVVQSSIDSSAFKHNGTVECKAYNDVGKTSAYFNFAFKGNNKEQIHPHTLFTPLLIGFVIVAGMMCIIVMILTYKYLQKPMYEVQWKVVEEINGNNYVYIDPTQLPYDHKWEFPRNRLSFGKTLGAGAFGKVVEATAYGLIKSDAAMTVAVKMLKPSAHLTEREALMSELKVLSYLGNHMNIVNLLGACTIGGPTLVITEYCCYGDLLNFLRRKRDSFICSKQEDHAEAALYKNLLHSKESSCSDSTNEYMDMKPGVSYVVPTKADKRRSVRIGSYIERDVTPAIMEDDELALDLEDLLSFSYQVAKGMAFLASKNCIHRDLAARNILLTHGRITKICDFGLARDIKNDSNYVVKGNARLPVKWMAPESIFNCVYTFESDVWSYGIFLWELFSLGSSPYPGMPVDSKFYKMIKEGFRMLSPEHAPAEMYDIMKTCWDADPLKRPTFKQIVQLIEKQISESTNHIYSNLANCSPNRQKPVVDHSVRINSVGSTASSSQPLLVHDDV
Briefly: HTRF biochemical assay, wtKIT (phosphorylation of a peptide substrate). Conditions: Table 4. Put shortly:
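HTRF read-out of FAM-peptide (1 µM) phosphorylation after anti-phosphotyrosine antibody addition and EDTA quench. Reaction: 5.0 nM wtKIT, 400 µM ATP, 10 mM Mn2+, HEPES pH 7.5, 1% DMSO, 3 h, 25 °C; optional enzyme-compound preincubation; enzyme level set for 10-20% conversion.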

For data set [3], the target named is T2, CSF-1R (Homo sapiens, UniProt P07333).
T2 construct: purchased Invitrogen PV3249 (lot 662393N)
T2 sequence (P07333 20-972): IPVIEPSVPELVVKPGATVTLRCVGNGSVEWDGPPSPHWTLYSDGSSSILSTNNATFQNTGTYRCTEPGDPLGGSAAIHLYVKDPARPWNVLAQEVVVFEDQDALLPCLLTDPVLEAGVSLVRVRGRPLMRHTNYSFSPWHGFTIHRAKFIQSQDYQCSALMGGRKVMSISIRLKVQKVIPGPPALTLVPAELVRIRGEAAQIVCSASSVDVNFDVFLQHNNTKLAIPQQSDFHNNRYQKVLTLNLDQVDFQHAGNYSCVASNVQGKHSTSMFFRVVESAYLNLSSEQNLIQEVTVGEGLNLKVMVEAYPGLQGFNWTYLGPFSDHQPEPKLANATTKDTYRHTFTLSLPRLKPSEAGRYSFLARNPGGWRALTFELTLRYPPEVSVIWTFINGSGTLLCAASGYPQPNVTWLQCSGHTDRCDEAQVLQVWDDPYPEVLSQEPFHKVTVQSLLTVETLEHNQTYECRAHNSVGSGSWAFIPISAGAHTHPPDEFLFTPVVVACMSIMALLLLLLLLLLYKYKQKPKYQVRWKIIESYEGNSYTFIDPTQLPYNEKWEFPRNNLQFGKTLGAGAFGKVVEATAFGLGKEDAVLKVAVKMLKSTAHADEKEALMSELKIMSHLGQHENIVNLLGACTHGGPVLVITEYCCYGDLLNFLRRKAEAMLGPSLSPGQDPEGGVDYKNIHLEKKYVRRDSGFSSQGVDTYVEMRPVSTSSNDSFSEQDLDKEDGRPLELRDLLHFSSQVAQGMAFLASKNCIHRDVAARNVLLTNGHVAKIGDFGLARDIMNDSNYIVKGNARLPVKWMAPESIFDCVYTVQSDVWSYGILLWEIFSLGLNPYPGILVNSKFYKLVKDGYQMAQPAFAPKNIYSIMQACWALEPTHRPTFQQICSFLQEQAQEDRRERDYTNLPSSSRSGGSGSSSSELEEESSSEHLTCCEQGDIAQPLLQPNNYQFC
As to the kind of experiment: HTRF biochemical assay, CSF-1R. Conditions: Table 4. The method, boiled down:
(§1)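 Kinase phosphorylation of a FAM-labelled peptide substrate, with ATP and Mn^2+ cofactors, run for 3 h at 25 °C, with optional enzyme–compound pre-incubation. Reactions were quenched with EDTA, and phosphopeptide was detected by anti-phosphotyrosine antibody HTRF.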
(In general: Time-resolved FRET reads energy transfer from a long-lived donor to a nearby acceptor.)

In data set [4] the target is T3, PDGFRα (Homo sapiens, UniProt P16234).
T3 construct: purchased Millipore 14-467 (lot 26321_ACTI)
T3 sequence (P16234 24-1089): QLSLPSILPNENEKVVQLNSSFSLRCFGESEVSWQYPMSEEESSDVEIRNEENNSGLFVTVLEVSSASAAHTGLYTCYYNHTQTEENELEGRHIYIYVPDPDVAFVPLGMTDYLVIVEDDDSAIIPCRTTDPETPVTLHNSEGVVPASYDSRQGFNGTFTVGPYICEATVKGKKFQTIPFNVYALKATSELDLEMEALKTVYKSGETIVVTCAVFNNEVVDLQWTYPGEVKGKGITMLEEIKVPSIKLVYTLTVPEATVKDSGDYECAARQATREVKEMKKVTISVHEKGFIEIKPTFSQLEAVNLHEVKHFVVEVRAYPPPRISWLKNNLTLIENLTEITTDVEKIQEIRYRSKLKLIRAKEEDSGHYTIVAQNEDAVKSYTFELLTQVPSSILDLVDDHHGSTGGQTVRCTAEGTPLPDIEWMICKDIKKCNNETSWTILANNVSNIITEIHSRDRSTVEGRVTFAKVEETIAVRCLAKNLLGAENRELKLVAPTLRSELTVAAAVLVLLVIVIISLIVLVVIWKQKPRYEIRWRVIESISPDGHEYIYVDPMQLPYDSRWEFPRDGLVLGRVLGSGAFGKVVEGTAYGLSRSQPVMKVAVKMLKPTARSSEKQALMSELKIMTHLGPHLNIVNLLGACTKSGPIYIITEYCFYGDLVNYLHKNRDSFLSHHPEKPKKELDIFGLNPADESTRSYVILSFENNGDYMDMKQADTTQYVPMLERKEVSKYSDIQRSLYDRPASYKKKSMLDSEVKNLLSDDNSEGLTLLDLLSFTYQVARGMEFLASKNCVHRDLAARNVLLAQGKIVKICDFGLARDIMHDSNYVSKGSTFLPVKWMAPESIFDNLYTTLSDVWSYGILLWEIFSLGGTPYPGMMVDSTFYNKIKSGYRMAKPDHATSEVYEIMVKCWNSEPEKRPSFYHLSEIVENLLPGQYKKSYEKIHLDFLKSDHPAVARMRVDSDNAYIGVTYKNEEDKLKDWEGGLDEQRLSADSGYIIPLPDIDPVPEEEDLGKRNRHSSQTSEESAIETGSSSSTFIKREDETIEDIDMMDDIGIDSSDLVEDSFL
As to the kind of experiment: HTRF biochemical assay, PDGFRα. Conditions: Table 4, read-out: PDFGRα Biochemical IC50 avg. Put shortly: as §1

For data set [5], the system named is KIT phosphorylation in M-07e cells. Briefly: Cell-based KIT phosphorylation in M-07e cells by pKIT ELISA. Further details: species or system human. The note with it: SCF stimulation. Put shortly: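 Serum-starved M-07e cells (1 × 10^6/mL, overnight) were treated with compounds (8-point 3-fold series from 1 uM) for 2 h at 37 °C, then stimulated with 100 ng/mL SCF for 5 min. Lysate phospho-KIT was captured on anti-phospho-CD117 plates, detected with anti-pY-HRP, and read at 450 nm against a pc-KIT standard curve.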
(In an ELISA, binding on a coated surface is turned into a signal by an enzyme label.)

Data set [6] has as its target T4, KIT-NanoLuc fusion in HEK293 cells (Homo sapiens, UniProt P10721).
T4 construct: expressed in transfected cells; host or cells: HEK293, transient transfection
As to the kind of experiment: NanoBRET cellular target engagement assay, KIT. In kind it is cell-based. As to the method: Exemplary compounds were tested for their ability to inhibit target engagement of KIT or CSF-1R kinases through competitive displacement of a Nano-Luc luciferase kinase fusion in HEK293 cells.
The NanoBRET target engagement assay employs an energy transfer technique designed to measure molecular proximity in living cells. The assay measures the apparent affinity of test compounds by competitive displacement of the NanoBRET tracer, reversibly bound to a NanoLuc luciferase-kinase fusion construct in cells. The intracellular binding affinity and selectivity are physiologically relevant and fundamental to the pharmacological mechanism of the compounds. While biochemical and biophysical assays identify the kinase inhibitors in vitro, the NanoBRET target engagement assay serves to determine the direct interaction of the compounds binding to target kinases in cells.
HEK293 cells transiently expressing NanoLuc-DDR1 fusion vector were seeded into 384-well plates and treated with the Tracer K-4 and compound for 1 hour. The BRET signal was measured on an EnVision 2104 multilabel microplate reader. NanoBRET Target Engagement Assay in HEK293 cells transiently transfected with KIT and CSF1R-NanoLuc Fusion Vector. HEK293 cells were transfected with […] KIT or CSF1R-NanoLuc Fusion Vector and […] carrier DNA. The transfected cells were treated with test compounds (starting at 10 μM, 10-dose with 3-fold dilution) and reference compound (desatinib) (starting at 1 μM, 10-dose with 3-fold dilution). Percent inhibition due to compound activity was calculated to determine IC50.
In general terms: In BRET a luciferase serves as donor, and the signal depends on an acceptor being close.

Data set [7] concerns the target T1, wtKIT. As to the kind of experiment: Caliper biochemical assay, wtKIT. Conditions: Table 6, read-out: KIT Biochemical IC50 avg. The method, boiled down: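 Mobility-shift read-out: after EDTA stop, fluorescent peptide substrate and product resolved electrophoretically on LabChip 3000. Reaction ran 3 h at 25° C with 400 μM ATP, Mn^2+ cofactor, 5.0 nM wtKIT, 1 μM FAM-peptide, pH 7.5 HEPES buffer; no-enzyme wells defined full inhibition.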

Data set [8] concerns the target T2, CSF-1R. As to the kind of experiment: Caliper biochemical assay, CSF-1R. Conditions: Table 6. The method, boiled down: (§2)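 Mobility-shift readout: after EDTA quench, fluorescent peptide and product are resolved electrophoretically on a LabChip and measured by fluorescence. Reactions contain enzyme, carboxyfluorescein peptide, ATP, Mn^2+ and compound, run 3 h at 25° C; 100% inhibition control lacks enzyme.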

Data set [9] addresses T3, PDGFRα. Briefly: Caliper biochemical assay, PDGFRα. Conditions: Table 6. The method, boiled down:
as §2

T4 sequence (P10721 26-976): as the sequence (P10721 26-976) above

Take `COc1ccn2c(C(=O)Nc3cc(-c4noc(CC(O)C(F)F)n4)ccc3C)cnc2c1` (single isomer, unassigned) [Compound I-40]: in data set [1] (time point 0.5 h), the Brain concentration is recorded as 63.2 ng/g, the Kp brain/plasma was 0.09, the Kp testes/plasma is 0.17 and the Plasma concentration was 712 ng/mL. This molecule also yielded a Testes concentration in data set [1] (time point 0.5 h) of 123 ng/g. In addition, in data set [1] (time point 2 h), the Brain concentration was 144 ng/g, the Kp brain/plasma is 0.08, the Kp testes/plasma was 0.32 and the Plasma concentration was 1770 ng/mL. The molecule further displayed a Testes concentration in [1] (time point 2 h) of 568 ng/g. In data set [1] (time point 7 h), this molecule yielded a Brain concentration of 65.4 ng/g, a Kp brain/plasma of 0.09, a Kp testes/plasma of 0.41 and a Plasma concentration of 764 ng/mL. In data set [1] (time point 7 h), this molecule displayed a Testes concentration of 300 ng/g. Also, in the data set on CYP3A4 (donor five), the “CYP 3A4 induction mRNA: Mean fold at 10 μM” value is “++ (induction fold of greater than 2-fold to less than or equal to 3-fold)”. In addition, the “CYP 3A4 induction mRNA: Mean fold at 10 μM” value with CYP3A4 (donor one) is “+++ (induction fold of greater than 3-fold to less than or equal to 10-fold)”. In “Kinetic solubility assay”, the “Solubility (μM)” value is reported as “**** (a solubility less than or equal to 2 μM)”.

One may read the IC50 as the point on the concentration scale where inhibition reaches its midpoint. For the molecule `Cc1nc(-c2ccc(C)c(NC(=O)c3cnc4cc(COCCO)ccn34)c2)no1` [Compound I-110], the IC50 at wtKIT [2] is at most 50 nM; at CSF-1R [3] it was 500 to 5000 nM; at PDGFRα [4], 500 to 5000 nM; in data set [5], 50 to 500 nM; in data set [6] it was at most 100 nM. In addition, the “Solubility (μM)” value in “Kinetic solubility assay” is on record as “* (a solubility greater than 50 μM)”.

On to `CCc1nc(-c2ccc(C)c(NC(=O)c3cnc4ccccn34)c2)no1` [Compound I-283], for which the IC50 was at most 50 nM at wtKIT [7], at most 50 nM against CSF-1R [8] and 5000 to 30000 nM on PDGFRα [9]. The “CYP 3A4 induction mRNA: Mean fold at 10 μM” value with CYP3A4 (donor two) is given as “++++ (induction fold of greater than 10-fold)”. Moreover, the “Solubility (μM)” value in the data set “Kinetic solubility assay” is “** (a solubility greater than 10 μM and less than or equal to 50 μM)”.
